Measured values reported in ChEMBL document CHEMBL1201862, “PubChem BioAssay data set” (2004).
Active and inactive are the calls of the source.

Tests used:
[1] = molecular target: T1, Carboxy-terminal domain RNA polymerase II polypeptide A small phosphatase 1 (Homo sapiens, UniProt Q9GZU7); assay: CTDSP1 inhibitors, concentration-response, biochemical, absorbance readout, ultra-high-throughput screen actives (AID 540297); assay type: functional
T1 sequence (Q9GZU7 whole entry): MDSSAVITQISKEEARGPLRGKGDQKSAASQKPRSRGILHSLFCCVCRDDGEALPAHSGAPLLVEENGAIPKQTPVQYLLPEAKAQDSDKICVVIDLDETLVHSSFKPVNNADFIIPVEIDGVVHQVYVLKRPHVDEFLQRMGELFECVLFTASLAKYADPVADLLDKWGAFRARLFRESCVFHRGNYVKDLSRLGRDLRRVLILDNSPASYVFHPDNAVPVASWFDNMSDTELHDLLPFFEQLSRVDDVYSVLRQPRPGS

Cytochrome P450 2C9 = Cytochrome P450 2C9 (Homo sapiens, UniProt P11712)
Chain of Cytochrome P450 2C9 (P11712 whole entry): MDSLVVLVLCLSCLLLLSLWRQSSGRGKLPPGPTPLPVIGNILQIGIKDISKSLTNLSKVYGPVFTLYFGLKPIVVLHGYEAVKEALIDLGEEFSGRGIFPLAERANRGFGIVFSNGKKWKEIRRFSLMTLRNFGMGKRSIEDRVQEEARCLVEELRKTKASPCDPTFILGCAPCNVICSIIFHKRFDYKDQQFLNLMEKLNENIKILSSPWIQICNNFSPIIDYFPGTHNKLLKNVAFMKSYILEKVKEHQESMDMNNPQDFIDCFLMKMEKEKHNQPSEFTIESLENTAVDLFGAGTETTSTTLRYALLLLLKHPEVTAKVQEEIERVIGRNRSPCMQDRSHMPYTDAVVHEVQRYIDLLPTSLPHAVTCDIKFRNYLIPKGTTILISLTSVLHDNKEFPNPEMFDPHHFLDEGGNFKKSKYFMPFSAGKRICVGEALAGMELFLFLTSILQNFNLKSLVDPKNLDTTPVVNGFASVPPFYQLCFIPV

Fatty acid synthase [2] = molecular target: T2, Fatty acid synthase (Homo sapiens, UniProt P49327); assay: inhibition of human FAS-TE enzyme activity – biochemical, endpoint fluorescence intensity, uHTS hits, dose response (AID 624327); assay type: functional;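 further: fluorescence from hydrolysis of an O-methyl fluorescein acyl ester substrate by the enzyme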
T2 sequence (P49327 whole entry): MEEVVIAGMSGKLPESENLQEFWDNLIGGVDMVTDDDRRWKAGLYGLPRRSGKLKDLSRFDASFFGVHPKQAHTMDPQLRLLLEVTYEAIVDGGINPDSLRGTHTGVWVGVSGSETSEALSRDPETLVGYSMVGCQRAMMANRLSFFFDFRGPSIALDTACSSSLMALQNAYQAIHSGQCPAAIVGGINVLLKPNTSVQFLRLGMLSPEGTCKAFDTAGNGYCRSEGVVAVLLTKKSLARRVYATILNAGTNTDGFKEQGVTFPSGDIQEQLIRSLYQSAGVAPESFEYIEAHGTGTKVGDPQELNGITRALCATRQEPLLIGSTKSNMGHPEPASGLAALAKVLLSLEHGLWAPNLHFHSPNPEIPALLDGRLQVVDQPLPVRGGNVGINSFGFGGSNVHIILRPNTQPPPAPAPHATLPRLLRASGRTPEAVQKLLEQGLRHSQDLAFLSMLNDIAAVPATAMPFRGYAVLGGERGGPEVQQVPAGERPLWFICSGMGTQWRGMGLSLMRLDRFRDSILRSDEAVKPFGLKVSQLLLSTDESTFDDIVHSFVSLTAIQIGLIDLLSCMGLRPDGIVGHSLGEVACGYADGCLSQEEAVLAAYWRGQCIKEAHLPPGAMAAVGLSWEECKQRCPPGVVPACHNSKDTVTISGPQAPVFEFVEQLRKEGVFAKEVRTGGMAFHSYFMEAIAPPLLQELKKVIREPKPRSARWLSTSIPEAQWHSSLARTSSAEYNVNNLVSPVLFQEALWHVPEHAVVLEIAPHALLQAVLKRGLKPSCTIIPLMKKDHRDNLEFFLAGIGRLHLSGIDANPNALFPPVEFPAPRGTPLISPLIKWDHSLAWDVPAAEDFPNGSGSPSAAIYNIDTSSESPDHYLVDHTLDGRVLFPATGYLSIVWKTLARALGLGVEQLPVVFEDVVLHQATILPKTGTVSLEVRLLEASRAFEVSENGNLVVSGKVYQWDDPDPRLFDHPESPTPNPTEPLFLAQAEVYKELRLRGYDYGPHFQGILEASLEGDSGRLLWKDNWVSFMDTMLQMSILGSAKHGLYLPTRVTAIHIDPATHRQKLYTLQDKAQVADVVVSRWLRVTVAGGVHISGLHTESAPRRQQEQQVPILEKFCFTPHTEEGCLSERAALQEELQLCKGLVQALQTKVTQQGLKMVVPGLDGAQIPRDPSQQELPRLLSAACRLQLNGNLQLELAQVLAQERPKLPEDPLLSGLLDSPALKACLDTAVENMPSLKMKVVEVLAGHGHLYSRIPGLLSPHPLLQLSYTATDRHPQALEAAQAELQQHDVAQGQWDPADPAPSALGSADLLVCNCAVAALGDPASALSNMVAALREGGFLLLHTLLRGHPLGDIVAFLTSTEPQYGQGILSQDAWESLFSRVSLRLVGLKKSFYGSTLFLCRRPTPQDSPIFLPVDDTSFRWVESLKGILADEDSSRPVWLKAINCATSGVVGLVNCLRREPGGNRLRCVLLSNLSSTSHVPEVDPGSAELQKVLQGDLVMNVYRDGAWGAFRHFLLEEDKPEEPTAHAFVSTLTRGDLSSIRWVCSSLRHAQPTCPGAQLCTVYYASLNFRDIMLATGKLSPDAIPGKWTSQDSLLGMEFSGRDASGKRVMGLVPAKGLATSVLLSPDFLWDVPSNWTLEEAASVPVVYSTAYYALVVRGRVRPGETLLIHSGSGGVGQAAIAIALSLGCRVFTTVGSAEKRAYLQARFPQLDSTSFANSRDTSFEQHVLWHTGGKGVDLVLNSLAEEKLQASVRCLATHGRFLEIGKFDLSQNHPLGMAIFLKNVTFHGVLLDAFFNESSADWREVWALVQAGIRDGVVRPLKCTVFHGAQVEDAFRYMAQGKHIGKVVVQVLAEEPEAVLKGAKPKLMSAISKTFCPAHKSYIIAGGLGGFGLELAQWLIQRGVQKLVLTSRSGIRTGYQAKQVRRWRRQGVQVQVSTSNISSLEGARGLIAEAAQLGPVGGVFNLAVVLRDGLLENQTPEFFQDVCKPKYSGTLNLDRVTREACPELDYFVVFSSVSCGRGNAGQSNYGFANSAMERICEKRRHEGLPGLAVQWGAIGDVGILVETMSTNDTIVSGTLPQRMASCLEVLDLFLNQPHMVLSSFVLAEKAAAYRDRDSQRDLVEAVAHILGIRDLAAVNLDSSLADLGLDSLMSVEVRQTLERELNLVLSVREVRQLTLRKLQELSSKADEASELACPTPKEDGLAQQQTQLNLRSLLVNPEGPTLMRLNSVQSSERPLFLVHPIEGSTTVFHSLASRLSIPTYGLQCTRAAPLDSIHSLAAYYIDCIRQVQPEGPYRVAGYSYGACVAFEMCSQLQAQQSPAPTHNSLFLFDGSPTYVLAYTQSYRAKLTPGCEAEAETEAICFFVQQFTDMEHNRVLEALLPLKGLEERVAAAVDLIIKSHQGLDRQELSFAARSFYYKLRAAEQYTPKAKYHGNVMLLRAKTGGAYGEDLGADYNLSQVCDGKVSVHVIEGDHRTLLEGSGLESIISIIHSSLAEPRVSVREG

Fatty acid synthase [3] = molecular target: T2, Fatty acid synthase; assay: inhibition of human FAS-TE enzyme activity – biochemical, kinetic fluorescence intensity, dose response (AID 624326); assay type: functional;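 further: rate of fluorescence rise from hydrolysis of a fluorogenic O-methyl fluorescein ester substrate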
[4] = molecular target: T3, High affinity choline transporter 1 (Homo sapiens, UniProt Q9GZV3); assay: human choline transporter blockers, potency – cell-based, 5-point CRC, membrane potential dye, dose response (AID 504840); assay type: functional
T3 sequence (Q9GZV3 whole entry): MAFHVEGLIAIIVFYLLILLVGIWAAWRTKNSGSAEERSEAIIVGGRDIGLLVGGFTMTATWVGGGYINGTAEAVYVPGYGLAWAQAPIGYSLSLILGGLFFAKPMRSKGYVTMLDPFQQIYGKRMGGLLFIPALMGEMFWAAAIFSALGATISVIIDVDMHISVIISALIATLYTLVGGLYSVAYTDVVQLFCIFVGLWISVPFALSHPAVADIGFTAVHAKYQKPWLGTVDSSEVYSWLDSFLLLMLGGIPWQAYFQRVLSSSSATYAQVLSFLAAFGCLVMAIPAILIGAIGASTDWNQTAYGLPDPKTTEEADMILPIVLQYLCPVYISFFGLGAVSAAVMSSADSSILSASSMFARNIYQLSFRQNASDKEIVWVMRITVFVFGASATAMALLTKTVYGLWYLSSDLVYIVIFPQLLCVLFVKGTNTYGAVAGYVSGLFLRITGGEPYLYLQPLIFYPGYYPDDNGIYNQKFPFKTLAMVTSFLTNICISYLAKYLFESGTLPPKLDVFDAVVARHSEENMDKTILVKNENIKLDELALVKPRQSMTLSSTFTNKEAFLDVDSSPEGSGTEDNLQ

HeLa = assay: ATP-based viability loss in HeLa cells – cell-based, CellTiter-Glo luminescence, cherry-pick samples, cytotoxicity control for MITF activator project, dose response (AID 540259); assay type: functional; conditions: Homo sapiens
[5] = molecular target: DNA dC->dU-editing enzyme APOBEC-3G (Homo sapiens, UniProt Q9HC16); assay: Dose Response confirmation of small molecule APOBEC3G DNA Deaminase Inhibitors via a fluorescence-based single-stranded DNA deaminase assay. [Related pubchem assays (depositor defined):AID493012, AID493028]; assay type: functional
Chain of DNA dC->dU-editing enzyme APOBEC-3G (Q9HC16 whole entry, the tested form may be a part): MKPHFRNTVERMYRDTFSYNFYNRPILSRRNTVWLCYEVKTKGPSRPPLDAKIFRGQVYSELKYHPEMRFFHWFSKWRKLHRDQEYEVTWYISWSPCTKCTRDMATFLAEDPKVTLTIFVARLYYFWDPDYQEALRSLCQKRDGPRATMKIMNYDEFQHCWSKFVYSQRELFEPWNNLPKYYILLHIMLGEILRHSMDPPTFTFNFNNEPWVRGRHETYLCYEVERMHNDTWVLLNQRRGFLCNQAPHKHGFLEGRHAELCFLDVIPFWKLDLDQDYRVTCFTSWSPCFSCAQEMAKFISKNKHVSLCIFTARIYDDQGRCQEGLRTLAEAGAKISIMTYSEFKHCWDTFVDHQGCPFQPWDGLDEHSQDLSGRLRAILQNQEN

[6] = molecular target: T4, RNA-binding protein pos-1 (Caenorhabditis elegans, UniProt G5EF15); assay: disruptors of C. elegans POS-1 RNA interaction – biochemical, fluorescence polarization, dose response (AID 1964);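 further: purified POS-1 fused to maltose binding protein made in E. coli; potency of compounds blocking POS-1 binding to fluorescent RNA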
T4 sequence (G5EF15 whole entry): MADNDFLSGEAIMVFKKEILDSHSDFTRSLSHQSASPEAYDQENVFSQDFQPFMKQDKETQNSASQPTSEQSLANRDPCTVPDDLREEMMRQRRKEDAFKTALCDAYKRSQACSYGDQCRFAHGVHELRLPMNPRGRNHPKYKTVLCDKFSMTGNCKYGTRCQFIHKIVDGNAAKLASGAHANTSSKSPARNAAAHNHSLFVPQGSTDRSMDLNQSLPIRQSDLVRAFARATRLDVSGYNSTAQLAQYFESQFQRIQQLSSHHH

[7] = molecular target: T5, Zinc finger protein mex-5 (Caenorhabditis elegans, UniProt Q9XUB2); assay: potency of MEX-5 RNA-binding blockers – biochemical, C. elegans, fluorescence polarization, dose response (AID 1960)
T5 sequence (Q9XUB2 whole entry): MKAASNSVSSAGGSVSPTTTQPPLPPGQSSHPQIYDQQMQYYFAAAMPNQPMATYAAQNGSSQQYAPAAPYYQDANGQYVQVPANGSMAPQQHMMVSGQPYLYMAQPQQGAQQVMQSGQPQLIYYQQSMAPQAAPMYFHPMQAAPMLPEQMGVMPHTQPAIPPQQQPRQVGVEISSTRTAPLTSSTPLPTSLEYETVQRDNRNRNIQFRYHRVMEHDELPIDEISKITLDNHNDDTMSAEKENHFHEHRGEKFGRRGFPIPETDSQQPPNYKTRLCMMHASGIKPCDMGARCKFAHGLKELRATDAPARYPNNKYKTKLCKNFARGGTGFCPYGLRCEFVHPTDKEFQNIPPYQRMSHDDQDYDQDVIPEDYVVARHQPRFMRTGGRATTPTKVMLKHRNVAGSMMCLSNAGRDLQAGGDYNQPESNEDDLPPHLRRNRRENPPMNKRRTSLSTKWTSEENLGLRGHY

[8] = molecular target: Induced myeloid leukemia cell differentiation protein Mcl-1 (Homo sapiens, UniProt Q07820); assay type: functional
Chain of Induced myeloid leukemia cell differentiation protein Mcl-1 (Q07820 whole entry): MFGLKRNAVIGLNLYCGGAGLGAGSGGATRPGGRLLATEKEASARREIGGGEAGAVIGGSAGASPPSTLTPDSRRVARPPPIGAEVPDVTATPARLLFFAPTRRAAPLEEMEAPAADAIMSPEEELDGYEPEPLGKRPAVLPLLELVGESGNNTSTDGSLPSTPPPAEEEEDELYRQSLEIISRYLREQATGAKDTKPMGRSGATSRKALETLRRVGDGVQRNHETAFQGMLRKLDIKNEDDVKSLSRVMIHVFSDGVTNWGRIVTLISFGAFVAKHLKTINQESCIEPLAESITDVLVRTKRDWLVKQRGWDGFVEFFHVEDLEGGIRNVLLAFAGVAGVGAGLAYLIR

[9] = tested on: Streptococcus sp. 'group A'; assay: Streptococcus pyogenes SK(-)GAS viability under kanamycin – luminescence, BacTiterGlo, confirmation, counter-screen for streptokinase expression inhibitor project, dose response (AID 1900); assay type: functional, organism-based
Streptococcus = assay: GAS UMAA2166 growth inhibition – luminescence, BacTiterGlo, counter-screen for streptokinase expression inhibitor project, dose response (AID 1915); assay type: functional, organism-based;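 further: potency for reduction of bacterial viability or growth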
HEK293 = assay: EBV LMP1 TES2 canonical NF-kB signalling blockers – cell-based, HEK293, luciferase, cherry-pick, dose response (AID 588343); assay type: functional; conditions: Homo sapiens
Vero = assay: cells; assay type: functional; conditions: Chlorocebus sabaeus
[10] = molecular target: T6, Polyadenylate-binding protein 1 (Homo sapiens, UniProt P11940); assay: MLLE binding blockers, Cy5 peptide tracer – biochemical, fluorescence polarization, Cy5-PAM2 peptide, secondary, miRNA deadenylation inhibitor project, dose response (AID 602260); assay type: functional; conditions: read-out: IC50_Mean
T6 sequence (P11940 whole entry, the tested form may be a part): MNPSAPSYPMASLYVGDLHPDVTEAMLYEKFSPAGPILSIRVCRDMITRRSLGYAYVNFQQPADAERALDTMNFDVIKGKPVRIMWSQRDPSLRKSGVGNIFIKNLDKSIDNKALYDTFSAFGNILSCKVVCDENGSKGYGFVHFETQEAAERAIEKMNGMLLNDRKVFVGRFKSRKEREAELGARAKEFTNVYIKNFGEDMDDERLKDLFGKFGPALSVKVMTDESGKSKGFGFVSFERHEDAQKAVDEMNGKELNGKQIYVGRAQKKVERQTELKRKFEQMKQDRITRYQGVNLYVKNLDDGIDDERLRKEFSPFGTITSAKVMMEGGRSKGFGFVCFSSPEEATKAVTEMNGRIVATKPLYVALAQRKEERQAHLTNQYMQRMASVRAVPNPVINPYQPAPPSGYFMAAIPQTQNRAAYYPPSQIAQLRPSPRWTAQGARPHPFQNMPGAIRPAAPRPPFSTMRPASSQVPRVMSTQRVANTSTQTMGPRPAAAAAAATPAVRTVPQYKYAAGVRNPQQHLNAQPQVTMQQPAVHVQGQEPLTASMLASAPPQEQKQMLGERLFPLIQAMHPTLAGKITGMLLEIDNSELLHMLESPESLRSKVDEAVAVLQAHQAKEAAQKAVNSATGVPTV

[11] = molecular target: T6, Polyadenylate-binding protein 1; assay: MLLE domain peptide-binding blockers, IC50 – biochemical, fluorescence polarization, FITC-PAM2 peptide, dose response (AID 602259); assay type: functional; conditions: read-out: IC50_Mean
[12] = viability of uninfected HEp-2 cells – cell-based, HTS, cytotoxicity control for RSV inhibitor project, dose response (AID 2410); assay type: functional; conditions: human respiratory syncytial virus
[13] = Luminescence Cell-Based Dose Response HTS to Identify Activators of Luciferase Translation or Activity in H4 […] Cells. [Related pubchem assays: 1829 (Project Summary), 1814 (Primary HTS)]; assay type: functional
H4 = assay: Luminescence Cell-Based Dose Response HTS to Identify Activators of 5'UTR Stem-Loop Driven Prion Protein mRNA Translation in H4 Neuroglioblastoma Cells. [Related pubchem assays: 1829 (Project Summary), 1814 (Primary HTS)]; assay type: functional; conditions: Homo sapiens

## O=C(COC(=O)c1cccnc1Cl)NCc1ccco1
[1]
  IC50: 12.4 µM (active)

## C[N+]1(CCOc2ccc([N+](=O)[O-])cc2)CCOCC1.[I-]
[1]
  IC50: 4.86 µM (active)
Cytochrome P450 2C9
  AC50: inconclusive

## O=C(Nc1cccc([N+](=O)[O-])c1)N1CCc2ccccc2C1
Fatty acid synthase [2]
  IC50: 8.71 µM (active)
Fatty acid synthase [3]
  IC50: 6.26 µM (active)

## COC(=O)c1cc(C(=O)OCC(=O)NC2CCCC2)cc([N+](=O)[O-])c1
Fatty acid synthase [2]
  IC50: 8.82 µM (active)
Fatty acid synthase [3]
  IC50: 9.42 µM (active)

## O=c1c2ccccc2nnn1CSc1nc2sc3c(c2c(=O)n1CC1CCCO1)CCC3 (stereo not given)
[4]
  IC50: 15.8 µM (active)

## Cc1ccc(-n2nc3ccc(NC(=O)C(C)C)cc3n2)cc1
HeLa
  AC50: 54.8 µM (active)

## O=C(O)CC(Sc1nnc(S)s1)C(=O)O (stereo not given)
[5]
  IC50: 45.1 µM (active)

## COc1cccc(CN(C)C(=O)c2ccc(COc3ccc(Cl)cc3)cc2)c1OC
HeLa
  AC50: 54.8 µM (active)

## Cc1cc(/C=C2\C(=O)NC(=O)N(c3ccc(Cl)cc3)C2=O)c(C)n1-c1cccc(C(=O)O)c1
[6]
  EC50: > 300 µM (not active)
[7]
  EC50: 65.9 µM (active)
[1]
  IC50: 9.6 µM (active)

## CC1=C(C(=O)OCC(C)C)C(c2ccsc2)NC(=O)N1 (stereo not given)
[8]
  IC50: 2.4 µM (not active)

## Cc1ccc(-c2cccc(CN3CCN(C(C)C)C(CCO)C3)c2)o1 (stereo not given)
[4]
  IC50: 7.85 µM (active)

## C=CCn1c(O)c(N=NC(S)=Nc2ccccc2F)c2ccccc21
[9]
  EC50: 0.628 µM (active)
Streptococcus
  EC50: 1.08 µM (active)
HEK293
  AC50: 2.88 µM (active)
Vero
  CC50: 18.2 µM (active)
[10]
  IC50: > 66 µM (inactive)
[11]
  IC50: > 66 µM (inactive)

## COc1ccccc1-c1cnn2c(NC3CCCC3)cc(C)nc12
[12]
  CC50: 40 µM (active)
[13]
  EC50: 0.139 µM (active)
H4
  EC50: 16.2 µM (active)
HeLa
  AC50: 117 µM (active)

## Cc1nc(C(C)NC(=O)CCc2nnc(CCCc3ccccc3)o2)c(C)s1 (stereo not given)
HeLa
  AC50: 314 µM (active)

## CCn1c(S)nnc1CCCCc1nnc(S)n1CC
[5]
  IC50: 25.8 µM (active)

## O=C1CC(c2cccc([N+](=O)[O-])c2)c2cc3c(cc2N1)CCC3 (stereo not given)
Fatty acid synthase [2]
  IC50: 10.9 µM (active)
Fatty acid synthase [3]
  IC50: 15.9 µM (active)
